In experiment [1] the target is T1, HCV polymerase (NS5B) type 1a (Hepatitis C virus genotype 1a, UniProt P26664).
T1 construct: made in house; host or cells: Escherichia coli (by the 'similar method' of the 1b enzyme)
As to the kind of experiment: Assay of enzyme (HCV polymerase) inhibitory activity, type 1a enzyme. The conditions noted are these: HCV polymerase inhibitory activity (IC50), 1a, type 1a enzyme 1.5 μg/ml, 25° C., 60 min. The experiment is classed as biochemical, HCV type 1a (cloned from the blood of patients). The procedure, abridged: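 IC50 values derive from radioactivity of newly synthesized RNA with versus without test compound. The enzyme was C-terminally truncated type 1a NS5B, 1.5 μg/ml, run 60 min at 25° C with 3H-UTP-labelled nucleotides.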

Experiment [2] deals with T2, HCV polymerase (NS5B) type 1b (Hepatitis C virus genotype 1b, UniProt P26663).
T2 construct: a region encoding NS5B (J Virol 1991 March, 65(3), 1105-13, 544 amino acids after deletion of 47 amino acids on the C-terminal); 6xHis (C); made in house; host or cells: Escherichia coli
As to the kind of experiment: Assay of enzyme (HCV polymerase) inhibitory activity, type 1b enzyme. The experiment is classed as biochemical, HCV BK strain (type 1b). The conditions noted are these: HCV polymerase inhibitory activity (IC50), 1b, type 1b enzyme 0.5 μg/ml, 25° C., 60 min. In a few lines:
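Polymerase activity was followed as radiolabelled UTP incorporation by E. coli-expressed, His-tagged NS5B of HCV type 1b lacking its last 47 residues. Conditions: 2 μM UTP, 50 μM other NTPs, Mg2+ buffer at pH 7.5, 25 °C for 60 min. Inhibition relative to compound-free reactions gave IC50.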

Bounds are passed on as bounds.

Usually IC50 stands for the concentration that gives 50% inhibition. A high value points to weaker potency in that assay. Consider `CCc1ccc(CNC(=O)C2CN(C(C)=O)CCN2S(=O)(=O)c2ccc(C(C)C)cc2)cc1` (stereo not shown) [Example 144, 4-acetyl-1-(4-isopropyl-benzenesulfonyl)-piperazine-2-carboxylic acid 4-ethyl-benzylamide], for which the IC50 in experiment [1] and in experiment [2] was 100 to 1000 nM in each case.

Turning to `CC(=O)N1CCN(S(=O)(=O)c2ccc(C(C)C)cc2)C(C(=O)NCCCc2ccccc2)C1` (stereo not shown) [Example 145, 4-acetyl-1-(4-isopropyl-benzenesulfonyl)-piperazine-2-carboxylic acid (3-phenyl-propyl)-amide], the IC50 in experiment [1] and in experiment [2] was greater than 1000 nM each time.

As for `CC(C)c1ccc(CNC(=O)[C@H]2CN(CC(N)=O)CCN2S(=O)(=O)c2ccc(C(F)(F)F)cc2)cc1` [Example 146, (R)-4-carbamoylmethyl-1-(4-trifluoromethyl-benzenesulfonyl)-piperazine-2-carboxylic acid 4-isopropyl-benzylamide], the IC50 in experiment [1] is greater than 1000 nM; in experiment [2] it was 100 to 1000 nM.

Regarding `CC(C)c1ccc(CNC(=O)[C@H]2CN(C3CC(=O)NC3=O)CCN2S(=O)(=O)c2ccc(C(F)(F)F)cc2)cc1` (stereo partly drawn) [Example 147, (R)-4-(2,5-dioxo-pyrrolidin-3-yl)-1-(4-trifluoromethyl-benzenesulfonyl)-piperazine-2-carboxylic acid 4-isopropyl-benzylamide], the IC50 is greater than 1000 nM in experiment [1] and 100 to 1000 nM in experiment [2].

As for `CC(C)c1ccc(CNC(=O)[C@H]2CN(C3=C(c4ccccc4)C(=O)NC3=O)CCN2S(=O)(=O)c2ccc(C(F)(F)F)cc2)cc1` [Example 148, (R)-4-(2,5-dioxo-4-phenyl-2,5-dihydro-1H-pyrrol-3-yl)-1-(4-trifluoromethyl-benzenesulfonyl)-piperazine-2-carboxylic acid 4-isopropyl-benzylamide], the IC50 in experiment [1] and in experiment [2] was greater than 1000 nM each time.

Regarding `CC(=O)N1CCN(S(=O)(=O)c2ccc(C(C)C)cc2)[C@@H](C(=O)NCCc2ccccc2Cl)C1` [Example 149, (R)-4-acetyl-1-(4-isopropyl-benzenesulfonyl)-piperazine-2-carboxylic acid [2-(2-chloro-phenyl)-ethyl]-amide], the IC50 in experiment [1] and in experiment [2] was greater than 1000 nM in each case.

On to `CC(=O)N1CCN(S(=O)(=O)c2ccc(C(C)C)cc2)[C@@H](C(=O)NCCc2cccc(Cl)c2)C1` [Example 150, (R)-4-acetyl-1-(4-isopropyl-benzenesulfonyl)-piperazine-2-carboxylic acid [2-(3-chloro-phenyl)-ethyl]-amide], for which the IC50 in experiment [1] and in experiment [2] was greater than 1000 nM each time.

Consider `CC(=O)N1CCN(S(=O)(=O)c2ccc(C(C)C)cc2)C(C(=O)NCc2ccc(C(F)(F)F)nc2)C1` (stereo not shown) [Example 151, 4-acetyl-1-(4-isopropyl-benzenesulfonyl)-piperazine-2-carboxylic acid (6-trifluoromethyl-pyridin-3-ylmethyl)-amide], for which the IC50 in experiment [1] and in experiment [2] was greater than 1000 nM each time.

`CC(=O)N1CCN(S(=O)(=O)c2ccc(C(C)C)cc2)C(C(=O)NCc2ccccn2)C1` (stereo not shown) [Example 152, 4-acetyl-1-(4-isopropyl-benzenesulfonyl)-piperazine-2-carboxylic acid (pyridin-2-ylmethyl)-amide]: the IC50 in experiment [1] and in experiment [2] was greater than 1000 nM in each case.

Take `CN(C)c1ccc(CNC(=O)C2CN(C(=O)Cc3ccccn3)CCN2S(=O)(=O)c2ccc(I)cc2)cc1` (stereo not shown) [Example 153, 1-(4-iodo-benzenesulfonyl)-4-(2-pyridin-2-yl-acetyl)-piperazine-2-carboxylic acid 4-dimethylamino-benzylamide]: the IC50 in experiment [1] and in experiment [2] was greater than 1000 nM each time.

As for `CN(C)c1ccc(CNC(=O)C2CN(C(=O)Cc3cccnc3)CCN2S(=O)(=O)c2ccc(I)cc2)cc1` (stereo not shown) [Example 154, 1-(4-iodo-benzenesulfonyl)-4-(2-pyridin-3-yl-acetyl)-piperazine-2-carboxylic acid 4-dimethylamino-benzylamide], the IC50 in experiment [1] and in experiment [2] was 100 to 1000 nM throughout.

Values taken from patent US8017612B2, “Piperazine compound and use thereof as a HCV polymerase inhibitor” (priority 2006, dated 2011).
